{
  "source": "patent US10800741B2",
  "about": "(ANCUREALL PHARMACEUTICAL (SHANGHAI) CO., LTD., priority 2017, dated 2020)",
  "assay_in_all_cases": "KINOMEscan in vitro binding to 468 labeled protein kinases",
  "key": {"protein kinases [1]": {"target": "T1, protein kinases (Homo sapiens, UniProt P00519, Q252H)", "T1 construct": "purchased Discovery X company (USA), KINOMEscan screening platform", "details": "read-out: Test compound/solvent control (%); for remaining binding at 0.001 µM: 1 nM; for remaining binding at 0.01 µM: 10 nM; for remaining binding at 1 µM: 1000 nM", "experimental": "(§1) Test Example 6 Determination of Binding Affinity of the Present Compounds on Protein Kinases In Vitro\n(§2) KINOMEscan screening platform of Discovery X company (USA) was used to identify the binding targets of the present compounds to protein kinases. Compound 66 of the present invention was dissolved in DMSO (Sigma Aldrich) at concentrations of 1000 nM, 10 nM and 1 nM, and then was subjected to in vitro binding reaction with 468 labeled protein kinases. Two samples were taken in parallel for each assay sample.\n(§3) The lower the percentage of the test compound to the solvent control, the stronger the binding affinity of the test compound to the protein kinase in vitro."}, "protein kinases [2]": {"target": "T2, protein kinases (Homo sapiens, UniProt P00519, Y253F)", "T2 construct": "purchased Discovery X company (USA), KINOMEscan screening platform", "details": "ABL1(Y253F)-phosphorylated, read-out: Test compound/solvent control (%)", "experimental": "as §1, §2, §3"}, "protein kinases [3]": {"target": "T3, protein kinases (Homo sapiens, UniProt P00533)", "T3 construct": "purchased Discovery X company (USA), KINOMEscan screening platform", "T3 sequence (P00533 25-1210)": "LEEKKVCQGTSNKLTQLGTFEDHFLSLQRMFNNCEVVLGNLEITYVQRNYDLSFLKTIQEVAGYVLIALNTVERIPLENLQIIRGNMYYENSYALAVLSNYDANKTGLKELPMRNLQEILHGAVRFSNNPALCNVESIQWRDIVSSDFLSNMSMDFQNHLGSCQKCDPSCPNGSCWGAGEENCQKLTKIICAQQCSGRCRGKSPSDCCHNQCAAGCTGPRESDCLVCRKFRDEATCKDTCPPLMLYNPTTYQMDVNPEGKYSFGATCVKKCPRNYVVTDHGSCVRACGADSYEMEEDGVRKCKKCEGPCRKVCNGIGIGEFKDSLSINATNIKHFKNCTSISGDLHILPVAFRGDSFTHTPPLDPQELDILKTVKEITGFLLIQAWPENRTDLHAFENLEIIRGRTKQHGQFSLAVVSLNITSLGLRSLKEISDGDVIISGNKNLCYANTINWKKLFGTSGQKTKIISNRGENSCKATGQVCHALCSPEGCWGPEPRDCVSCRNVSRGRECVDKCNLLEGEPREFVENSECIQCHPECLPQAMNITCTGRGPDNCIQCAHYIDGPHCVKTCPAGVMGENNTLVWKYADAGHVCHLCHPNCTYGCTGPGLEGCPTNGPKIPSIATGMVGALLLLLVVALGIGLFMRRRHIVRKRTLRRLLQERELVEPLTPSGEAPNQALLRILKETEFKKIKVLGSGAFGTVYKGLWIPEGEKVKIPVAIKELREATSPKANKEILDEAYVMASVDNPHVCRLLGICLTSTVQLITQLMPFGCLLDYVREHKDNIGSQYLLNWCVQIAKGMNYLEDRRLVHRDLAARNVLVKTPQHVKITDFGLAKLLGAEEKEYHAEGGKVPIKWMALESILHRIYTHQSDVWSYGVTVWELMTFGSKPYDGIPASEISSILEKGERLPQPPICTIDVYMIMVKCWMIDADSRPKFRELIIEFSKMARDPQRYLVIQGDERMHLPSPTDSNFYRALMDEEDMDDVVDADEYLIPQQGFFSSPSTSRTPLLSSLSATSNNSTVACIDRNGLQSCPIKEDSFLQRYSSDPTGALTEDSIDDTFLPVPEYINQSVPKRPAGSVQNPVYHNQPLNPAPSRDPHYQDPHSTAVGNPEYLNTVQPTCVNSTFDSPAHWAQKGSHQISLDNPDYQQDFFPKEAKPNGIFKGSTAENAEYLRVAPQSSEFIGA", "details": "EGFR", "experimental": "as §1, §2, §3"}, "protein kinases [4]": {"target": "T4, protein kinases (Homo sapiens, UniProt P00533, DEL746-750)", "T4 construct": "purchased Discovery X company (USA), KINOMEscan screening platform", "T4 sequence (P00533 with tags, fused parts or gaps DEL746-750)": "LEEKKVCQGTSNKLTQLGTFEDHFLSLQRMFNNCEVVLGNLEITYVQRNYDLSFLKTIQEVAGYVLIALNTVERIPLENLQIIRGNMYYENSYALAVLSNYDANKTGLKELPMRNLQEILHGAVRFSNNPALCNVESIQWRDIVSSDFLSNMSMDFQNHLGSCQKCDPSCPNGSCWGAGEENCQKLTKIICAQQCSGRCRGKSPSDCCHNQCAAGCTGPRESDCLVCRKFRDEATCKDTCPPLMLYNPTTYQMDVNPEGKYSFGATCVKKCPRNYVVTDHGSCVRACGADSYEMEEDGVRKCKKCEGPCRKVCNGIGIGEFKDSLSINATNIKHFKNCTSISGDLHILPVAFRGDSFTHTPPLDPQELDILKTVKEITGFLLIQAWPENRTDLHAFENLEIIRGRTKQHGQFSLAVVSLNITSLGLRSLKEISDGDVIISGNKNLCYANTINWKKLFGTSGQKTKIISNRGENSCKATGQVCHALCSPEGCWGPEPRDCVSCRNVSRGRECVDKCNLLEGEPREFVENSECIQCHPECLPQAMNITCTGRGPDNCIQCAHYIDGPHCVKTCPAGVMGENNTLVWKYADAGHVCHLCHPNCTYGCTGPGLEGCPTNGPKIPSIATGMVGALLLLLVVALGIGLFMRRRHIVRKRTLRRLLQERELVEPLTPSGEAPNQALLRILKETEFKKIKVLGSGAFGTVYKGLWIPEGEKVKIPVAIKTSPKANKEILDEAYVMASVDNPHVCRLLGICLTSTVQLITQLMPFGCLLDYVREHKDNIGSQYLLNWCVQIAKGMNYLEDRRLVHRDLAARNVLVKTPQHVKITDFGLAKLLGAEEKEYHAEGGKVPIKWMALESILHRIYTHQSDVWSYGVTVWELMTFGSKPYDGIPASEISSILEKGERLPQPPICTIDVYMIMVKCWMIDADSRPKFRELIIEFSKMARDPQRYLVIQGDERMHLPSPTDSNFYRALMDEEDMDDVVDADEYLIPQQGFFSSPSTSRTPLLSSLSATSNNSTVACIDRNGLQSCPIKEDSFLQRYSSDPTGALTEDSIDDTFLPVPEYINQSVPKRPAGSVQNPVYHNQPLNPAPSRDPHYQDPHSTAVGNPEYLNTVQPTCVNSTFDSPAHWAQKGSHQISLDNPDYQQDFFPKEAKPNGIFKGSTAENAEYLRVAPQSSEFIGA", "details": "EGFR(E746-A750de1)", "experimental": "as §1, §2, §3"}, "protein kinases [5]": {"target": "T5, protein kinases (Homo sapiens, UniProt P00533, L858R)", "T5 construct": "purchased Discovery X company (USA), KINOMEscan screening platform", "details": "EGFR(L858R)", "experimental": "as §1, §2, §3"}, "protein kinases [6]": {"target": "T6, protein kinases (Homo sapiens, UniProt P06241)", "T6 construct": "purchased Discovery X company (USA), KINOMEscan screening platform", "details": "FYN, read-out: Test compound/solvent control (%)", "experimental": "as §1, §2, §3"}, "protein kinases [7]": {"target": "T7, protein kinases (Homo sapiens, UniProt P10721)", "T7 construct": "purchased Discovery X company (USA), KINOMEscan screening platform", "T7 sequence (P10721 26-976)": "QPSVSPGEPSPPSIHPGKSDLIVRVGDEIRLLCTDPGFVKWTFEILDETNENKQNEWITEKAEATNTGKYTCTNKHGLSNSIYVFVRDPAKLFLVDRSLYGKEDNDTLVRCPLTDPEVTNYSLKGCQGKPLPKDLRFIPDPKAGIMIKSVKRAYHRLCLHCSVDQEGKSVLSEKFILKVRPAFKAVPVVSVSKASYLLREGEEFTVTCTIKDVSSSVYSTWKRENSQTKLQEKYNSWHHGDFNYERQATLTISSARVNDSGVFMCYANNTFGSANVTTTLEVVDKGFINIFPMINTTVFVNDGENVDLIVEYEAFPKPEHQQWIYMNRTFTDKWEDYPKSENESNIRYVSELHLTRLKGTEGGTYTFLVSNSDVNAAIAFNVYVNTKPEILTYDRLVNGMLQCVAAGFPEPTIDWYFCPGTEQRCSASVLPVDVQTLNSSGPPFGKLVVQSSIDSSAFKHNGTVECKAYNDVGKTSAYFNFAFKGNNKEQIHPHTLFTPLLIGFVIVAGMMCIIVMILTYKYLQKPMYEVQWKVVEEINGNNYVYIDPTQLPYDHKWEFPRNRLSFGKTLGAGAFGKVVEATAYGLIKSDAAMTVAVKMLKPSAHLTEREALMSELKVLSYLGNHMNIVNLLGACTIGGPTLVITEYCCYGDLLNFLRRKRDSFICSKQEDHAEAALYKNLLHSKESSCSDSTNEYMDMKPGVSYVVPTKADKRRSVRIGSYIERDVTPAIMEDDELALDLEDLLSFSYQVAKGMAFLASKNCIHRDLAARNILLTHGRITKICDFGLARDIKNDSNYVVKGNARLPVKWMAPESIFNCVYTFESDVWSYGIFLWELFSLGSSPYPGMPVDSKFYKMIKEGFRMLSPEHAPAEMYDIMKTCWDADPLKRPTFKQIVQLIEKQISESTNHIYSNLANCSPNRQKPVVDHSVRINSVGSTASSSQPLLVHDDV", "details": "KIT, read-out: Test compound/solvent control (%)", "experimental": "as §1, §2, §3"}, "protein kinases [8]": {"target": "T8, protein kinases (Homo sapiens, UniProt P10721, V559D)", "T8 construct": "purchased Discovery X company (USA), KINOMEscan screening platform", "T8 sequence (P10721 26-976 V559D)": "as the sequence (P10721 26-976) above, with V534D counted along it", "details": "KIT(V559D), read-out: Test compound/solvent control (%)", "experimental": "as §1, §2, §3"}, "protein kinases [9]": {"target": "T9, protein kinases (Homo sapiens, UniProt P11362)", "T9 construct": "purchased Discovery X company (USA), KINOMEscan screening platform", "T9 sequence (P11362 22-822)": "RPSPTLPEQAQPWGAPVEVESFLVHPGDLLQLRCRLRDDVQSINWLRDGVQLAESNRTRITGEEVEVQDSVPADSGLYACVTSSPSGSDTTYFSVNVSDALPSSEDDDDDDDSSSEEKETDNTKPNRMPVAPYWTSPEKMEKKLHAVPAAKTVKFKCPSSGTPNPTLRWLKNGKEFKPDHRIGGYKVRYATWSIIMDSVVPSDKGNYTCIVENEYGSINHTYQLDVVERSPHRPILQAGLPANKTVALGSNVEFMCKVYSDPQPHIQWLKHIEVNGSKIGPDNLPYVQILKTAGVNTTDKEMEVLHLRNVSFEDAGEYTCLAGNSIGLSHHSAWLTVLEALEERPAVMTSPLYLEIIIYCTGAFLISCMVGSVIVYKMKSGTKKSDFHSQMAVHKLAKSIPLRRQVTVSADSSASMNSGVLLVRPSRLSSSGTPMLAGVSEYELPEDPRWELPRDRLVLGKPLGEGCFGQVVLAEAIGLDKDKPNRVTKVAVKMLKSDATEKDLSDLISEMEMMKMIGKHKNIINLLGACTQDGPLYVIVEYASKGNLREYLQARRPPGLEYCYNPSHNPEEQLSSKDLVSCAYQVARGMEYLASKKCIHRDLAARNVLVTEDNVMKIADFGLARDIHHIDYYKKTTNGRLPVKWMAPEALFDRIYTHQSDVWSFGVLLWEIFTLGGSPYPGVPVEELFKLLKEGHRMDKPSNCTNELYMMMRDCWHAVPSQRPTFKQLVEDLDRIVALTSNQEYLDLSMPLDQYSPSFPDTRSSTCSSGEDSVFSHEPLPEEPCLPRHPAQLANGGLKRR", "details": "FGFR1, read-out: Test compound/solvent control (%)", "experimental": "as §1, §2, §3"}, "protein kinases [10]": {"target": "T10, protein kinases (Homo sapiens, UniProt P12931)", "T10 construct": "purchased Discovery X company (USA), KINOMEscan screening platform", "details": "SRC, read-out: Test compound/solvent control (%)", "experimental": "as §1, §2, §3"}, "protein kinases [11]": {"target": "T11, protein kinases (Homo sapiens, UniProt P36888, K663Q)", "T11 construct": "purchased Discovery X company (USA), KINOMEscan screening platform", "T11 sequence (P36888 27-993 K663Q)": "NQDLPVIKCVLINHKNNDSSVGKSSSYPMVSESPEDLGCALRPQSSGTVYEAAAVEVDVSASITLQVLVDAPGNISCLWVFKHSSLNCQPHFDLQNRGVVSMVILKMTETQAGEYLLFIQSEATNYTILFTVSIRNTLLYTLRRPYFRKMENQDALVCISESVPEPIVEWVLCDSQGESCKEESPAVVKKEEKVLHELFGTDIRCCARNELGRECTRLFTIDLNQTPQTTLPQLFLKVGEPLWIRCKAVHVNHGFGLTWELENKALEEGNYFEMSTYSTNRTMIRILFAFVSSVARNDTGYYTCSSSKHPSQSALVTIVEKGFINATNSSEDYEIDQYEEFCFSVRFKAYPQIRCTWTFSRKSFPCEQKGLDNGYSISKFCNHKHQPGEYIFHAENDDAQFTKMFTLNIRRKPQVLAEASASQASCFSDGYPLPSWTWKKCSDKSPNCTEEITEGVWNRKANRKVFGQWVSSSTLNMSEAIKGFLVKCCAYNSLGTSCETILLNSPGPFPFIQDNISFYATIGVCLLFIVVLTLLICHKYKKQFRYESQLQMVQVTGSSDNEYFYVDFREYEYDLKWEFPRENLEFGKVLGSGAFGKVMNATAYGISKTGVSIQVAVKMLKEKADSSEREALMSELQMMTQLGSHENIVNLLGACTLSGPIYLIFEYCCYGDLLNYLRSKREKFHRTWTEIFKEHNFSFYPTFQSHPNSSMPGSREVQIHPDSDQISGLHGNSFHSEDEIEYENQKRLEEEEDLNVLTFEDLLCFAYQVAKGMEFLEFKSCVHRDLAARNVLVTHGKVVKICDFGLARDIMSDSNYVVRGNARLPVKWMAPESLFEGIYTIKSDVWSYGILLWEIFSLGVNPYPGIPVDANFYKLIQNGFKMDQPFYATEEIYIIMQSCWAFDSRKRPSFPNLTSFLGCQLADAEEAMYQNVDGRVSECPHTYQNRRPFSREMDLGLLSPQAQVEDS", "details": "FLT3(K663Q), read-out: Test compound/solvent control (%)", "experimental": "as §1, §2, §3"}, "protein kinases [12]": {"target": "T12, protein kinases (Homo sapiens, UniProt Q16288)", "T12 construct": "purchased Discovery X company (USA), KINOMEscan screening platform", "T12 sequence (Q16288 32-839)": "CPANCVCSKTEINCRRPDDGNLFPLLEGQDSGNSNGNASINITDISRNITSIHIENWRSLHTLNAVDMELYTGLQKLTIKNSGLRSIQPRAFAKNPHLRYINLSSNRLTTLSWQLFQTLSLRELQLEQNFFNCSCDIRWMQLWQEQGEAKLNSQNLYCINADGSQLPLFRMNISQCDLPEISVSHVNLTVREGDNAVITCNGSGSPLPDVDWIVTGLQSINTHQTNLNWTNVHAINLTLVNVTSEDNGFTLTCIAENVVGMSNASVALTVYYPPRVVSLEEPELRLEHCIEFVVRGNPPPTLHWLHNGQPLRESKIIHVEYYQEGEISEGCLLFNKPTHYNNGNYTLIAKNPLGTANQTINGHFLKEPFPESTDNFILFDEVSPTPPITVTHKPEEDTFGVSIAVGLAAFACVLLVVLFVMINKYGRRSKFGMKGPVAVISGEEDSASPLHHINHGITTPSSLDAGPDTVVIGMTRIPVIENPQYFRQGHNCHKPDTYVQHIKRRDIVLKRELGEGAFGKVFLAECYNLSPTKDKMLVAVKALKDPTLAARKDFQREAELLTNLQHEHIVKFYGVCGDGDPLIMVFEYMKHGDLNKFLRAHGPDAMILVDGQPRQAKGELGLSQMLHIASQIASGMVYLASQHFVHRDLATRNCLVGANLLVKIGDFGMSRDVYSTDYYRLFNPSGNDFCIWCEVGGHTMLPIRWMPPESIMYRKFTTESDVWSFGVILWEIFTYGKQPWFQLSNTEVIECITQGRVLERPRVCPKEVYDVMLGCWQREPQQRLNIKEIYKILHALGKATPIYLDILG", "details": "TRKC (NTRK3), read-out: Test compound/solvent control (%)", "experimental": "as §1, §2, §3"}},
  "note": "Read-outs that look alike come from different tables or passages of the source.",
  "data": [
    {"smiles": "COCCOc1cc2nccc(Oc3ccc(NC(=O)Nc4cc(C(C)(C)C)n[nH]4)c(Cl)c3)c2cc1NC(C)=O", "note": "[Compound 66, N-[4-{4-[3-(5-tert-butyl-2H-pyrazol-3-yl)-ureido]-3-chloro-phenoxy}-7-(2-methoxy-ethoxy)-quinolin-6-yl]-acetamide]", "values": [
      {"measurement": "remaining binding at 0.001 µM", "setting": "protein kinases [1]; ABL1(Q252H)-phosphorylated", "value": 71, "unit": "%"},
      {"measurement": "remaining binding at 0.01 µM", "setting": "protein kinases [1]; ABL1(Q252H)-phosphorylated", "value": 12, "unit": "%"},
      {"measurement": "remaining binding at 1 µM", "setting": "protein kinases [1]; ABL1(Q252H)-phosphorylated", "value": 0.15, "unit": "%"},
      {"measurement": "remaining binding at 0.001 µM", "setting": "protein kinases [1]; ABL1(Q252H)-unphosphorylated", "value": 48, "unit": "%"},
      {"measurement": "remaining binding at 0.01 µM", "setting": "protein kinases [1]; ABL1(Q252H)-unphosphorylated", "value": 7.8, "unit": "%"},
      {"measurement": "remaining binding at 1 µM", "setting": "protein kinases [1]; ABL1(Q252H)-unphosphorylated", "value": 0, "unit": "%"},
      {"measurement": "remaining binding at 0.001 µM", "setting": "protein kinases [2]; 1 nM", "value": 80, "unit": "%"},
      {"measurement": "remaining binding at 0.01 µM", "setting": "protein kinases [2]; 10 nM", "value": 11, "unit": "%"},
      {"measurement": "remaining binding at 1 µM", "setting": "protein kinases [2]; 1000 nM", "value": 0.1, "unit": "%"},
      {"measurement": "Test compound/solvent control (%)", "setting": "protein kinases [3]; 1 nM", "value": 100, "unit": "%"},
      {"measurement": "Test compound/solvent control (%)", "setting": "protein kinases [3]; 10 nM", "value": 26, "unit": "%"},
      {"measurement": "Test compound/solvent control (%)", "setting": "protein kinases [3]; 1000 nM", "value": 0, "unit": "%"},
      {"measurement": "Test compound/solvent control (%)", "setting": "protein kinases [4]; 1 nM", "value": 60, "unit": "%"},
      {"measurement": "Test compound/solvent control (%)", "setting": "protein kinases [4]; 10 nM", "value": 18, "unit": "%"},
      {"measurement": "Test compound/solvent control (%)", "setting": "protein kinases [4]; 1000 nM", "value": 2.8, "unit": "%"},
      {"measurement": "Test compound/solvent control (%)", "setting": "protein kinases [5]; 1 nM", "value": 87, "unit": "%"},
      {"measurement": "Test compound/solvent control (%)", "setting": "protein kinases [5]; 10 nM", "value": 28, "unit": "%"},
      {"measurement": "Test compound/solvent control (%)", "setting": "protein kinases [5]; 1000 nM", "value": 0, "unit": "%"},
      {"measurement": "remaining binding at 0.001 µM", "setting": "protein kinases [6]; 1 nM", "value": 94, "unit": "%"},
      {"measurement": "remaining binding at 0.01 µM", "setting": "protein kinases [6]; 10 nM", "value": 41, "unit": "%"},
      {"measurement": "remaining binding at 1 µM", "setting": "protein kinases [6]; 1000 nM", "value": 0, "unit": "%"},
      {"measurement": "remaining binding at 0.001 µM", "setting": "protein kinases [7]; 1 nM", "value": 90, "unit": "%"},
      {"measurement": "remaining binding at 0.01 µM", "setting": "protein kinases [7]; 10 nM", "value": 27, "unit": "%"},
      {"measurement": "remaining binding at 1 µM", "setting": "protein kinases [7]; 1000 nM", "value": 0, "unit": "%"},
      {"measurement": "remaining binding at 0.001 µM", "setting": "protein kinases [8]; 1 nM", "value": 82, "unit": "%"},
      {"measurement": "remaining binding at 0.01 µM", "setting": "protein kinases [8]; 10 nM", "value": 18, "unit": "%"},
      {"measurement": "remaining binding at 1 µM", "setting": "protein kinases [8]; 1000 nM", "value": 0, "unit": "%"},
      {"measurement": "remaining binding at 0.001 µM", "setting": "protein kinases [9]; 1 nM", "value": 56, "unit": "%"},
      {"measurement": "remaining binding at 0.01 µM", "setting": "protein kinases [9]; 10 nM", "value": 4.5, "unit": "%"},
      {"measurement": "remaining binding at 1 µM", "setting": "protein kinases [9]; 1000 nM", "value": 0.3, "unit": "%"},
      {"measurement": "remaining binding at 0.001 µM", "setting": "protein kinases [10]; 1 nM", "value": 36, "unit": "%"},
      {"measurement": "remaining binding at 0.01 µM", "setting": "protein kinases [10]; 10 nM", "value": 1.4, "unit": "%"},
      {"measurement": "remaining binding at 1 µM", "setting": "protein kinases [10]; 1000 nM", "value": 0.1, "unit": "%"},
      {"measurement": "remaining binding at 0.001 µM", "setting": "protein kinases [11]; 1 nM", "value": 89, "unit": "%"},
      {"measurement": "remaining binding at 0.01 µM", "setting": "protein kinases [11]; 10 nM", "value": 22, "unit": "%"},
      {"measurement": "remaining binding at 1 µM", "setting": "protein kinases [11]; 1000 nM", "value": 3.2, "unit": "%"},
      {"measurement": "remaining binding at 0.001 µM", "setting": "protein kinases [12]; 1 nM", "value": 84, "unit": "%"},
      {"measurement": "remaining binding at 0.01 µM", "setting": "protein kinases [12]; 10 nM", "value": 28, "unit": "%"},
      {"measurement": "remaining binding at 1 µM", "setting": "protein kinases [12]; 1000 nM", "value": 0.2, "unit": "%"}
    ]}
  ]
}
